Results from patent US20170290814A1, “METHODS OF TREATMENT OF CHOLESTASIS AND FIBROSIS” (GENFIT, priority 2016, published 2017).
“Also recorded” adds a separate entry of the source.

Key:
[1] = tested on: TGFβ1-induced expression of α-SMA protein in human HSC; assay: α-SMA ELISA in TGFβ1-activated human hepatic stellate cells; assay type: cell-based; settings: TGFβ1 1 ng/ml, 48 h
Procedure: Serum-deprived HSC were preincubated for 1 hour with RM-5061 before the activation with the profibrogenic cytokine TGFβ1 (1 ng/ml). After 48 hours of incubation, the α-SMA content was measured by ELISA. The obtained values were transformed into percentage inhibition over TGFβ1 control. Data are presented as mean (quadruplicates)±standard error of the mean (SEM). Statistical analyses were performed by one-way ANOVA followed by Bonferroni post-hoc tests, using Sigma Plot 11.0 software. [*: p<0.05; **: p<0.01; ***: p<0.001 (comparison versus TGFβ1 1 ng/mL group)]. The curve fitting and the calculation of half maximal inhibitory concentration (IC50) were performed with XLFit software 5.3.1.3.
Serum-deprived HSC were preincubated for 1 hour with Cpd.5 before the activation with the profibrogenic cytokine TGFβ1 (1 ng/ml). After 48 hours of incubation, the expression of α-SMA was measured by ELISA. The obtained values were transformed into percentage inhibition over TGFβ1 control. Data are presented as mean (triplicates)±standard deviation (SD). Statistical analyses were performed by one-way ANOVA followed by Bonferroni post-hoc tests, using Sigma Plot 11.0 software. [*: p<0.05; **: p<0.01; ***: p<0.001 (comparison versus TGFμ1 1 ng/mL group)]. The curve fitting and the calculation of half maximal inhibitory concentration (IC50) were performed with XLFit software 5.3.1.3.
(§1) The human primary hepatic stellate cells (hHSC) (Innoprot) were cultured in STeCM medium (ScienCell cat #5301) that was supplemented with 2% fetal bovine serum (FBS, ScienCell cat #0010), 1% penicillin/streptomycin (ScienCell cat #0503) and stellate cell growth supplement (SteCGS; ScienCell cat #5352). Cell culture flasks were coated with Poly-L Lysine (Sigma cat #P4707) for a better adherence.
(§2) The human primary hepatic stellate cells (hHSC) (Innoprot) were cultured under standard conditions, as described above. The cells were subsequently plated at a density of 2×10^4cells/well or 6,5×10^3 cells/well into 96-well or 384-well plates respectively. The next day, cell-culture medium was removed, and cells were washed with PBS (Invitrogen cat #14190). Then, hHSC were deprived for 24 hours in serum-free and SteCGS-free medium. For the treatments with compounds of formula (I), the serum-deprived hHSC were preincubated for 1 hour with the compounds followed by addition of the profibrogenic stimuli TGFβ1 (PeproTech cat #100-21, 1 ng/mL) in serum-free and SteCGS-free medium for an additional 48 hour period. At the end of treatment, the cell culture supernatants of treated-HSC were transferred into a new plate before storage at −20° C.The cells were washed with PBS (Invitrogen, cat #14190) before the addition of lysis buffer (CelLytic™ MT reagent; Sigma #C3228). Plates were then incubated for 30 min on ice using a plate shaker, before storage at −20° C.
The level of α-SMA was measured using a Sandwich ELISA. Briefly, the wells of an ELISA plate were first coated with the capture antibody (mouse monoclonal anti-ACTA2, Abnova) at 4° C. overnight. After 3 washes in PBS +0.2% Tween 20, a blocking solution consisting of PBS +0.2% BSA was added for one hour followed by another washing cycle. The cell lysates were transferred into the wells for binding to the capture antibody for a period of 2 h at room temperature. After the washing procedure, the detection antibody (biotinylated mouse monoclonal anti-ACTA2, Abnova) was added for 2 hours at room temperature followed by 3 washes. For the detection, an HRP-conjugated Streptavidin (R&D Systems cat #DY998) was first applied for 30 min at room temperature. After washing, the HRP substrate TMB (;BD, #555214) was added and incubated for 7 min at room temperature in the dark. Upon oxidation, TMB forms a water-soluble blue reaction product that becomes yellow with addition of sulfuric acid (solution stop), enabling accurate measurement of the intensity at 450 nm using a spectrophotometer. […]

[2] = tested on: TGFβ1-induced expression of COL1A1 protein in human HSC; assay: Col1α1 ELISA on supernatants of TGFβ1-activated human HSC; assay type: cell-based; settings: 48 h
Procedure: as §1, §2
The level of the human pro-Collagen α1 (col1α1) was measured using a Sandwich ELISA (R&D systems,). Briefly, the wells of an ELISA plate were first coated with the capture antibody at room temperature overnight. After 3 washes in PBS +0.05% Tween 20, a blocking solution consisting of PBS +1% BSA was added for one hour followed by another washing cycle. […]
Serum-deprived HSC were preincubated for 1 hour with RM-5061 before the activation with the profibrogenic cytokine TGFβ1 (1 ng/ml). After 48 hours of incubation, the cellular α-SMA content as well as secreted COL1A1 were measured by ELISA. […]

Row | Compound | Max % I Over TGFβ, αSMA [1] [%] | effect on TGFβ1-induced α-SMA level in human HSC [1] | effect on COL1A1 in human HSC ([2]; TGFβ1 1 ng/ml) | IC50 ([2]; secreted COL1A1, TGFβ1 1 ng/ml) [nM] | Max % I Over TGFβ, COL1A1 ([2]; secreted COL1A1, TGFβ1 1 ng/ml) [%]
1 | CC(C)(C)[C@H](N)C(=O)Oc1ccccc1C(=O)Nc1ncc([N+](=O)[O-])s1 [RM-5061, (S)-2-(5-nitrothiazol-2-ylcarbamoyl)phenyl 2-amino-3,3-dimethylbutanoate] | 40 | dose-dependently reduced; also recorded: inhibits | reduced in a comparable manner | 2670 | 43
2 | [2H]C([2H])([2H])C(=O)Oc1ccccc1C(=O)Nc1ncc([N+](=O)[O-])s1 [Cpd.5, 2-[(5-nitro-1,3-thiazol-2-yl)carbamoyl]phenyl (d3)ethanoate] |  | inhibits |  |  | 
